This note sets out measurements from ChEMBL document CHEMBL4411289, “Antinociceptive Potential of Zinnia grandiflora” (2019).

The source made the active and inactive calls. The rule behind the calls is not given here.

The test system of assay [1] is Mus musculus. The assay is described as follows: Antinociceptive activity in ICR mouse assessed as reduction in licking time during phase 2 (tonic response phase) at 3.16 to 31.6 mg/kg, po dosed 30 mins before formalin injection and by formalin test. It is filed as functional, organism-based.
Assay [2] has as its system Mus musculus. In words: Antinociceptive activity in ICR mouse assessed as reduction in licking time during phase 1 (acute phase) at 3.16 to 31.6 mg/kg, po dosed 30 mins before formalin injection and by formalin test. It is filed as functional, organism-based.
Assay [3] has as its system Mus musculus. The assay is described as follows: Antinociceptive activity in ICR mouse assessed as reduction in licking time at 31.6 mg/kg, po dosed 30 mins before formalin injection and by formalin test. In kind it is functional. Also on record: scale not given: the % may be the effect or the level left.

Regarding `C=C[C@@]1(C)[C@H]2OC(=O)C(=C)[C@H]([C@@H]2OC(=O)/C(C)=C\C)[C@H](OC(=O)C(C)C)[C@@H]1C(=C)C(=O)O`, the outcome in the assay with Mus musculus [1] and in the assay on Mus musculus [2] was Active. With `O=C(O)Cc1ccccc1Nc1c(Cl)cccc1Cl` [DICLOFENAC], the Activity in the assay with Mus musculus [3] is on record as 40.9%.
